Measured values published in patent publication US6921776B1, “Compound” (Sterix Limited, priority 1996, dated 2005).
Read-outs that look alike come from different tables or passages of the source.

Legend:
[1] = biological target: T1, oestrone sulphatase (E1-STS) (Homo sapiens, UniProt P08842); conditions: cited from earlier work; for Mode of E1-STS inhibition: literature
T1 sequence (P08842 22-583): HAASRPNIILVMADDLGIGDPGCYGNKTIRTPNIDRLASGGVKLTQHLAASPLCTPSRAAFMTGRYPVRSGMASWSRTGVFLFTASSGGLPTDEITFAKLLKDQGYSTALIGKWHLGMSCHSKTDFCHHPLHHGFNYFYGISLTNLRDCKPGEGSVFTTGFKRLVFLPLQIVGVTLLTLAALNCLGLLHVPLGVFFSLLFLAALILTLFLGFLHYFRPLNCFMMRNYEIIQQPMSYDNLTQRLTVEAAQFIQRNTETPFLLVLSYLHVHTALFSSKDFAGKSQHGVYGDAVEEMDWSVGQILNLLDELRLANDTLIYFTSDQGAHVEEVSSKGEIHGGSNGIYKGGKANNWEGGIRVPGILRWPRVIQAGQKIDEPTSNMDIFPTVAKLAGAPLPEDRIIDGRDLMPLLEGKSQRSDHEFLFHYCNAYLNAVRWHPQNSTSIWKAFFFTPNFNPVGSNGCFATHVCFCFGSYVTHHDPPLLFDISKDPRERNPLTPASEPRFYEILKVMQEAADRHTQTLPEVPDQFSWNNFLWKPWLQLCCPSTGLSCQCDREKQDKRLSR

[2] = biological target: T2, dehydroepiandrosterone sulphatase (DHA-STS) (Homo sapiens, UniProt P08842); conditions: read-out: IC50 for inhibition of DHEA sulphatase in placental microsomes; from Ref. 25; cited from earlier work
T2 sequence (P08842 22-583): T1 sequence (P08842 22-583)

[3] = biological target: T3, rat liver DHA-STS (Rattus norvegicus, UniProt P15589); conditions: administered orally or subcutaneously; cited from earlier work
T3 construct: host or cells: rat liver, after dosing in vivo
T3 sequence (P15589 20-577): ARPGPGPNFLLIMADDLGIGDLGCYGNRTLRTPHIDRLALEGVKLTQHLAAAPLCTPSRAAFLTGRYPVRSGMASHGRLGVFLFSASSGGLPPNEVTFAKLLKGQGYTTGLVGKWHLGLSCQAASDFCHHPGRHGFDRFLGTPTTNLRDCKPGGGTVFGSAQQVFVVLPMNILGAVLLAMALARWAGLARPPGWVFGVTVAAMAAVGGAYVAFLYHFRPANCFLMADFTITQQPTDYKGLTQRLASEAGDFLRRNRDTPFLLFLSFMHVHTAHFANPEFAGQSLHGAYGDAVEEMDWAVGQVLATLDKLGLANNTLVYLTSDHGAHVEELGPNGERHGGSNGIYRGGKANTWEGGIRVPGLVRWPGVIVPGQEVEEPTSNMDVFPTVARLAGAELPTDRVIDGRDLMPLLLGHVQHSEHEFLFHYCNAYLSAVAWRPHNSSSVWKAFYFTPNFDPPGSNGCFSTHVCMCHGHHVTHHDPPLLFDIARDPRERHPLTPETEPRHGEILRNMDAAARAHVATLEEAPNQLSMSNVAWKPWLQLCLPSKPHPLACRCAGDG

[4] = biological target: T1, oestrone sulphatase (E1-STS); parameters: endogenous in cells; host or cells: MCF-7 breast cancer cells; conditions: 0.1 μM; cited from earlier work
[5] = biological target: T1, oestrone sulphatase (E1-STS); conditions: for E1-STS inhibitory potency compared with COUMATE: placental microsomes
[6] = in vivo; cited from earlier work
[7] = Chemical and thermal stability of coumarin sulphate; assay type: physicochemical; conditions: sodium hydroxide in methanol
[8] = biological target: T4, E1-STS (Homo sapiens, UniProt P08842); conditions: previous work, Ref. 28; cited from earlier work
T4 sequence (P08842 22-583): T1 sequence (P08842 22-583)

[9] = biological target: T4, E1-STS; assay: Substrate test: hydrolysis of coumarin sulphates by placental microsomes in absence or presence of EMATE; conditions: 100 μg, 1 h, placental microsomes ± EMATE 10 μM
[10] = biological target: T1, oestrone sulphatase (E1-STS); conditions: cited from earlier work
[11] = test system: ovariectomized rats; assay: Oestrogenicity after oral administration: E1S-stimulated uterine growth in ovariectomized rats; assay type: in vivo, rat
Description: The oestrogenic activity of 17 was also studied.

[12] = biological target: T1, oestrone sulphatase (E1-STS); assay: Inhibition of oestrone sulphatase (E1-STS) in intact MCF-7 breast cancer cells; conditions: 10 μM
[13] = biological target: T1, oestrone sulphatase (E1-STS); assay: Time- and concentration-dependent inactivation of oestrone sulphatase in placental microsomes (preincubation); assay type: biochemical
[14] = test system: ovariectomised rats; assay: Oestrogenic activity: uterine weight in ovariectomised rats; assay type: in vivo, rat; conditions: 1 mg/kg s.c. for 5 days
[15] = biological target: T5, E1-STS (Rattus norvegicus, UniProt P15589); assay: E1-STS activity in uteri of treated ovariectomised rats; assay type: in vivo; conditions: 1 mg/kg s.c. for 5 days
T5 construct: The E1-STS activity in the uteri obtained from these animals; from tissue; host or cells: uteri of ovariectomised rats dosed in vivo
T5 sequence (P15589 20-577): T3 sequence (P15589 20-577)

[16] = biological target: T6, oestrone sulphatase (Rattus norvegicus, UniProt P15589); assay: Sulphatase activity in white blood cells of rats after oral dosing; assay type: in vivo
T6 construct: from tissue; host or cells: white blood cells of orally dosed rats
T6 sequence (P15589 20-577): T3 sequence (P15589 20-577)

[17] = test system: ovariectomized rats; conditions: oral, from Ref. 31; cited from earlier work

For `C[C@]12CC[C@@H]3c4ccc(OS(N)(=O)=O)cc4CC[C@H]3[C@@H]1CCC2=O` [EMATE, oestrone-3-sulphamate], the “Mode of E1-STS inhibition” value [1] is listed as “time- and concentration-dependent manner”, the KI (inactivation) ([1]; read-out: Apparent Ki for E1-STS inactivation, from Ref. 25) is listed as 0.67 µM and the IC50 [2] is listed as 0.11 µM. The “Inhibition of rat liver DHA-STS activity” value [3] was 99%, the “% inhibition of E1-STS activity in intact MCF-7 cells” value [4] was “more than 99%” and the IC50 [5] was 0.025 µM.
For `CCCc1cc(=O)oc2cc(OS(N)(=O)=O)ccc12` [compound 6, 4-(n-Propyl)coumarin-7-O-sulphamate], the “% Inhibition ± S.D. of E1-STS activity in placental microsomes” value (from here on “% Inhibition ± S.D. of E1-STS activity”) ([5]; 0.1 μM (Table 1)) was 42 ± 2%, the “% Inhibition ± S.D. of E1-STS activity” value ([5]; 1 μM (Table 1)) was 94 ± 1% and the “% Inhibition ± S.D. of E1-STS activity” value ([5]; 10 μM (Table 1)) was 96 ± 1%. The “E1-STS inhibitory potency compared with COUMATE” value [5] was “more potent E1-STS inhibitors than COUMATE”.
With `NS(=O)(=O)Oc1ccc2c(c1)OC(=O)CC1=C2CCCC1` [compound 22, 6-Oxo-6,7,8,9,10,11-hexahydrodibenz[b,d]oxepin-3-O-sulphamate] the “% Inhibition ± S.D. of E1-STS activity” value ([5]; 0.01 μM (Table 2)) was less than 10%, the “% Inhibition ± S.D. of E1-STS activity” value ([5]; 0.1 μM (Table 2)) was 31 ± 5% and the “% Inhibition ± S.D. of E1-STS activity” value ([5]; 1 μM (Table 2)) was 94 ± 2%.
With `CCc1cc(=O)oc2cc(OS(N)(=O)=O)ccc12` [compound 4, 4-Ethylcoumarin-7-O-sulphamate] the “% Inhibition ± S.D. of E1-STS activity” value ([5]; 0.1 μM (Table 1)) was 35 ± 1%, the “% Inhibition ± S.D. of E1-STS activity” value ([5]; 1 μM (Table 1)) was 88 ± 1% and the “% Inhibition ± S.D. of E1-STS activity” value ([5]; 10 μM (Table 1)) was greater than 99%. The “E1-STS inhibitory potency compared with COUMATE” value [5] was “more potent E1-STS inhibitors than COUMATE”.
For `C[C@]12CC[C@@H]3c4ccc(OS(=O)(=O)O)cc4CC[C@H]3[C@@H]1CCC2=O` [E1S, oestrone sulphate], the Half-life in blood [6] is listed as 10 to 12 h.
For `Cc1cc(=O)oc2cc(OS(=O)(=O)[O-])ccc12.[Na+]` [compound 12, 7-(Sulphoxy)-4-Methylcoumarin, sodium salt], the “Stability in basic and acidic conditions” value [7] is given as “stable in bases such as sodium hydroxide in methanol but not in acidic conditions”, the melting point is given as 172 to 175 °C (dec.) and the “Substrate for E1-STS” value [8] is given as “substrate for E1-STS”. The “Substrate for E1-STS” value [9] was “the coumarin sulphate is indeed a substrate for the sulphatase”.
With `CCCc1c(C)c2ccc(OS(N)(=O)=O)cc2oc1=O` [compound 11, 4Methyl-3-(n-propyl)coumarin-7-O-sulphamate] the “% Inhibition ± S.D. of E1-STS activity” value ([5]; 0.1 μM (Table 1)) was 83 ± 1%, the “% Inhibition ± S.D. of E1-STS activity” value ([5]; 1 μM (Table 1)) was 97 ± 1% and the “% Inhibition ± S.D. of E1-STS activity” value ([5]; 10 μM (Table 1)) was greater than 99%. For the same compound, the “E1-STS inhibitory potency compared with COUMATE” value [5] was “more potent E1-STS inhibitors than COUMATE”.
In the case of Coumarin-7-O-sulphamate [compound 13], the “% Inhibition ± S.D. of E1-STS activity” value ([10]; 10 μM (Table 1, reproduced from Ref. 28)) is listed as 78 ± 1% and the “% Inhibition of E1-STS activity in placental microsomes” value ([10]; 50 μM (footnote a, Ref. 28)) is listed as greater than 90%.
For `NS(=O)(=O)Oc1ccc2c3c(c(=O)oc2c1)CCCCC3` [compound 17, 6-Oxo-8,9,10,11-tetrahydro-7H-cyclohepta-[c][1]benzopyran-3-O-sulphamate], the “Oestrogenicity” value [11] was “devoid of oestrogenicity” and the “Oestrogenicity” value ([11]; listed as 667COUMATE) was “not being oestrogenic”.
In the case of oestrone-3-S-sulphamate, the “Mode of E1-STS inhibition” value [1] is listed as “weaker non-time-dependent inactivators”.
With `O=c1oc2cc(OS(=O)(=O)O)ccc2c2c1CCCCC2` [compound 18, 6-Oxo-3-sulfooxy-8,9,10,11-tetrahydro-7H-cyclohepta-[c][1]-benzopyran] the “Substrate for E1-STS” value [9] was “is a substrate for this enzyme”.
In the case of `CCc1c(C)c2ccc(OS(N)(=O)=O)cc2oc1=O` [compound 8, 3-Ethyl-4-methylcoumarin-7-O-sulphamate], the “% Inhibition ± S.D. of E1-STS activity” value ([5]; 0.1 μM (Table 1)) is reported as 57 ± 1%, the “% Inhibition ± S.D. of E1-STS activity” value ([5]; 1 μM (Table 1)) is reported as 96 ± 1% and the “% Inhibition ± S.D. of E1-STS activity” value ([5]; 10 μM (Table 1)) is reported as greater than 99%. The “E1-STS inhibitory potency compared with COUMATE” value [5] was “more potent E1-STS inhibitors than COUMATE”.
In the case of `NS(=O)(=O)Oc1ccc2c(C(F)(F)F)cc(=O)oc2c1` [compound 16], the “% inhibition of E1-STS in intact MCF-7 cells” value [12] is reported as 71.5%.
With `NS(=O)(=O)Oc1ccc2c3c(c(=O)oc2c1)CCCCCC3` [compound 20, 6-Oxo-7,8,9,10,11,12-hexahydro-cycloocta-[c][1]benzopyran-3-O-sulphamate] the “% Inhibition ± S.D. of E1-STS activity” value ([5]; 0.01 μM (Table 2)) was 17 ± 2%, the “% Inhibition ± S.D. of E1-STS activity” value ([5]; 0.1 μM (Table 2)) was 89 ± 1% and the “Inhibition of E1-STS in placental microsomes” value ([5]; 1 μM) was “almost complete inhibition”. The “% Inhibition ± S.D. of E1-STS activity” value ([5]; 1 μM (Table 2)) was greater than 99%.
In the case of `Cc1cc(=O)oc2cc(OS(N)(=O)=O)ccc12` [compound 14], the “Mode of E1-STS inhibition” value [13] is reported as “time- and concentration-dependent manner in a biphasic fashion”, the “Effect on uterine weight (oestrogenic activity)” value [14] is reported as “did not result in any significant increase in the uterine weight” and the “Inhibition of E1-STS activity in uteri compared with untreated animals” value [15] is reported as 89.4%. For the same compound, the “Oral activity in rats” value [16] was “potent oral activity”, the “% Inhibition of sulphatase activity in white blood cells, MD” value (“% Inhibition of sulphatase activity” for short) ([16]; daily for seven days 0.1 mg/kg) was 65% and the “% Inhibition of sulphatase activity” value ([16]; daily for seven days 1.0 mg/kg) was 85%. The “% Inhibition of sulphatase activity” value ([16]; daily for seven days 10.0 mg/kg) was 89%, the “% Inhibition ± S.D. of E1-STS activity” value ([10]; 0.1 μM (Table 1, reproduced from Ref. 28)) was less than 10% and the “% Inhibition ± S.D. of E1-STS activity” value ([10]; 1 μM (Table 1, reproduced from Ref. 28)) was 63 ± 1%. The “Oestrogenicity” value [17] was “devoid of oestrogenicity”.
For oestrone-3-N-sulphamate, the “Mode of E1-STS inhibition” value [1] is listed as “weaker non-time-dependent inactivators”.
